Measured values from US12187728B2 (Raze Therapeutics, Inc., priority 2015, dated 2025).

Molecular target: T1, Human MTHFD2 (Homo sapiens, UniProt P13995)
T1 construct: residues 36-350 in Uniport ID P13995; His6 (N); made in house; host or cells: E. coli
T1 sequence (P13995 36-350): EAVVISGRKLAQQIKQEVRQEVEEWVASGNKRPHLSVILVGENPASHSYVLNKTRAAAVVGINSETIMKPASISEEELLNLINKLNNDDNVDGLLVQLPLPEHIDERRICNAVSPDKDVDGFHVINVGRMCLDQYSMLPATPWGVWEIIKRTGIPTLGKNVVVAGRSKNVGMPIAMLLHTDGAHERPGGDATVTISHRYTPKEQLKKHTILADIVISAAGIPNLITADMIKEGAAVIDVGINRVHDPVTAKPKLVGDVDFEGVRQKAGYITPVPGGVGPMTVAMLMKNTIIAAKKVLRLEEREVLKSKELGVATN
Test: MTHFD2 Activity Assay (dehydrogenase activity, diaphorase/resazurin coupled fluorescence)
Assay type: biochemical
Settings: inhibitory activity (IC50 and/or binding constant); 0.2 nM MTHFD2, 11 concentrations
How it was run: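 Steps: compound + 0.2 nM enzyme, 15 min, pH 8.0 Hepes buffer; add 70 μM CH2-THF, 1 mM NAD+, 100 μM resazurin, diaphorase; 30 min; quench with EDTA; read fluorescence. Data normalized to DMSO (100%) and no-enzyme (0%) wells.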

Row | IC50 [nM] | Structure (SMILES)
1 | 10 to 1000 | Cn1c(Nc2ccnc(CCC(N)=O)n2)nc2c1c(=O)n(Cc1cc3c(Cl)cccc3[nH]1)c(=O)n2C [Example 378, 3-(4-(1-((4-chloro-1H-indol-2-yl)methyl)-3,7-dimethyl-2,6-dioxo-2,3,6,7-tetrahydro-1H-purin-8-ylamino)pyrimidin-2-yl)propanamide]
2 | 10 to 1000 | Cn1c(Nc2ccncc2)nc2c1c(=O)n(Cc1ccc3ccccc3c1Cl)c(=O)n2C [Example 375, 1-((1-chloronaphthalen-2-yl)methyl)-3,7-dimethyl-8-(pyridin-4-ylamino)-1H-purine-2,6(3H,7H)-dione]
3 | 10 to 1000 | CC(=O)NCc1nccc(Nc2nc3c(c(=O)n(Cc4cc5c(Cl)cccc5[nH]4)c(=O)n3C)n2C)n1 [Example 451, N-((4-(1-((4-chloro-1H-indol-2-yl)methyl)-3,7-dimethyl-2,6-dioxo-2,3,6,7-tetrahydro-1H-purin-8-ylamino)pyrimidin-2-yl)methyl)acetamide]
4 | 10 to 1000 | Cc1cc(Nc2nc3c(c(=O)n(Cc4cc5c(Cl)cccc5[nH]4)c(=O)n3C)n2C)nc(CCC(N)=O)n1 [Example 475, 3-(4-(1-((4-chloro-1H-indol-2-yl)methyl)-3,7-dimethyl-2,6-dioxo-2,3,6,7-tetrahydro-1H-purin-8-ylamino)-6-methylpyrimidin-2-yl)propanamide]
5 | 10 to 1000 | CNC(C)c1nc2c(c(=O)n(Cc3cc4c(Cl)cccc4[nH]3)c(=O)n2C)n1C (stereo not drawn) [Example 438, 1-[(4-chloro-1H-indol-2-yl)methyl]-3,7-dimethyl-8-[1-(methylamino)ethyl]purine-2,6-dione]
6 | 10 to 1000 | COc1cccc2[nH]c(Cn3c(=O)c4c(nc(Nc5ccncc5)n4C)n(C)c3=O)cc12 [Example 370, 1-((4-methoxy-1H-indol-2-yl)methyl)-3,7-dimethyl-8-(pyridin-4-ylamino)-1H-purine-2,6(3H,7H)-dione]
7 | 10 to 1000 | Cn1c(C(N)c2ccncc2)nc2c1c(=O)n(Cc1cc3c(Cl)cccc3[nH]1)c(=O)n2C (stereo not drawn) [Example 461, 8-(amino(pyridin-4-yl)methyl)-1-((4-chloro-1H-indol-2-yl)methyl)-3,7-dimethyl-1H-purine-2,6(3H,7H)-dione]
8 | 10 to 1000 | Cn1c(Nc2ccccn2)nc2c1c(=O)n(Cc1cc3c(Cl)cccc3[nH]1)c(=O)n2C [Example 302, 1-((4-chloro-1H-indol-2-yl)methyl)-3,7-dimethyl-8-(pyridin-2-ylamino)-1H-purine-2,6(3H, 7H)-dione]
9 | 10 to 1000 | Cn1c(/C(=N/O)c2ccncc2)nc2c1c(=O)n(Cc1cc3c(Cl)cccc3[nH]1)c(=O)n2C [Example 468, (E)-1-((4-chloro-1H-indol-2-yl)methyl)-8-((hydroxyimino)(pyridin-4-yl)methyl)-3,7-dimethyl-1H-purine-2,6(3H,7H)-dione or (Z)-1-((4-chloro-1H-indol-2-yl)methyl)-8-((hydroxyimino)(pyridin-4-yl)methyl)-3,7-dimethyl-1H-purine-2,6(3H,7H)-dione]
10 | 1000 to 5000 | Cn1c(Nc2ccnc(C(F)(F)F)c2)nc2c1c(=O)n(Cc1cc3c(Cl)cccc3[nH]1)c(=O)n2C [Example 334, 1-[(4-chloro-1H-indol-2-yl)methyl]-8-[(2-trifluoromethyl-4-pyridyl)amino]-3,7-dimethyl-purine-2,6-dione]
11 | 10 to 1000 | C/C(=N\O)c1nc2c(c(=O)n(Cc3cc4c(Cl)cccc4[nH]3)c(=O)n2C)n1C [Example 478, (E)-1-((4-chloro-1H-indol-2-yl)methyl)-8-(1-(hydroxyimino)ethyl)-3,7-dimethyl-1H-purine-2,6(3H,7H)-dione or (Z)-1-((4-chloro-1H-indol-2-yl)methyl)-8-(1-(hydroxyimino)ethyl)-3,7-dimethyl-1H-purine-2,6(3H,7H)-dione]
12 | 1000 to 5000 | Cn1c(-n2c(N)nc3ccccc32)nc2c1c(=O)n(Cc1cc3c(Cl)cccc3[nH]1)c(=O)n2C [Example 353, 8-(2-amino-1H-benzo[d]imidazol-1-yl)-1-((4-chloro-1H-indol-2-yl)methyl)-3,7-dimethyl-1H-purine-2,6(3H,7H)-dione]

Further lines, the molecule ahead of its results:

Row | Structure (SMILES) | IC50 [nM]
13 | Cn1c(C(N)=O)nc2c1c(=O)n(Cc1ccc(Cl)c(Cl)c1)c(=O)n2C [Example 244, 1-(3,4-dichlorobenzyl)-3,7-dimethyl-2,6-dioxo-2,3,6,7-tetrahydro-1H-purine-8-carboxamide] | 1000 to 5000
14 | Cn1c(NC2CCNCC2)nc2c1c(=O)n(Cc1ccc(Cl)c(Cl)c1)c(=O)n2C [Example 35, 1-[(3,4-dichlorophenyl)methyl]-3,7-dimethyl-8-[(piperidin-4-yl)amino]-2,3,6,7-tetrahydro-1H-purine-2,6-dione] | 1000 to 5000
15 | COc1ccc2c(c1)cc(Cn1c(=O)c3c(nc(N[C@H]4CC[C@@H](O)C4)n3C)n(C)c1=O)n2C [Example 188, 8-((1S,3R)-3-hydroxycyclopentylamino)-1-((5-methoxy-1-methyl-1H-indol-2-yl)methyl)-3,7-dimethyl-1H-purine-2,6(3H,7H)-dione] | 1000 to 5000
16 | Cn1c(Cn2c(=O)c3c(nc(Nc4cc[nH]c(=O)n4)n3C)n(C)c2=O)cc2cc(Cl)ccc21 [Example 224, 1-((5-chloro-1-methyl-1H-indol-2-yl)methyl)-3,7-dimethyl-8-(2-oxo-1,2-dihydropyrimidin-4-ylamino)-1H-purine-2,6(3H,7H)-dione] | 10 to 1000
17 | Cn1c(Nc2cccnn2)nc2c1c(=O)n(Cc1ccc(Cl)c(Cl)c1)c(=O)n2C [Example 122, 1-(3,4-dichlorobenzyl)-3,7-dimethyl-8-(pyridazin-3-ylamino)-1H-purine-2,6(3H,7H)-dione] | 10 to 1000
18 | Cn1c(Nc2nccc(O)n2)nc2c1c(=O)n(Cc1ccc(Cl)c(Cl)c1)c(=O)n2C [Example 138, 1-(3,4-dichlorobenzyl)-8-(4-hydroxypyrimidin-2-ylamino)-3,7-dimethyl-1H-purine-2,6(3H,7H)-dione] | 10 to 1000
19 | Cc1ccc2[nH]c(Cn3c(=O)c4c(nc(Nc5cc[nH]c(=O)n5)n4C)n(C)c3=O)cc2c1 [Example 190, 3,7-dimethyl-1-((5-methyl-1H-indol-2-yl)methyl)-8-(2-oxo-1,2-dihydropyrimidin-4-ylamino)-1H-purine-2,6(3H,7H)-dione] | 10 to 1000
20 | COC(=O)c1nc2c(c(=O)n(Cc3ccc(Cl)c(Cl)c3)c(=O)n2C)n1C [Example 161, Methyl 1-(3,4-dichlorobenzyl)-3,7-dimethyl-2,6-dioxo-2,3,6,7-tetrahydro-1H-purine-8-carboxylate] | 1000 to 5000
21 | Cn1cnc2c1c(=O)n(Cc1ccc(Cl)c(C#N)c1)c(=O)n2C [Example 256, 2-chloro-5-((3,7-dimethyl-2,6-dioxo-2,3,6,7-tetrahydro-1H-purin-1-yl)methyl)benzonitrile] | 1000 to 5000
22 | Cn1c(N[C@H](CO)CC2CCCCC2)nc2c1c(=O)n(Cc1ccc(C(F)(F)F)cc1)c(=O)n2C [Example 120, (S)-8-(1-cyclohexyl-3-hydroxypropan-2-ylamino)-3,7-dimethyl-1-(4-(trifluoromethyl)benzyl)-1H-purine-2,6(3H,7H)-dione] | > 10000
23 | Cn1c(Nc2ccccc2C#N)nc2c1c(=O)n(Cc1ccc(Cl)c(Cl)c1)c(=O)n2C [Example 142, 2-(1-(3,4-dichlorobenzyl)-3,7-dimethyl-2,6-dioxo-2,3,6,7-tetrahydro-1H-purin-8-ylamino)benzonitrile] | 1000 to 5000
24 | Cn1c(N[C@H]2CCCNC2=O)nc2c1c(=O)n(Cc1cc3ccccc3[nH]1)c(=O)n2C [Example 213, (S)-1-((1H-indol-2-yl)methyl)-3,7-dimethyl-8-(2-oxopiperidin-3-ylamino)-1H-purine-2,6(3H,7H)-dione] | 10 to 1000
25 | Cn1c(N[C@H]2CC[C@H](N)CC2)nc2c1c(=O)n(Cc1ccc(Cl)c(Cl)c1)c(=O)n2C [Example 38, (±)-1-[(3,4-dichlorophenyl)methyl]-3,7-dimethyl-8-{[(trans)-4-aminocyclohexyl]amino}-2,3,6,7-tetrahydro-1H-purine-2,6-dione] | 1000 to 5000
26 | Cn1c(C(O)C2CCC(C(=O)O)CC2)nc2c1c(=O)n(Cc1ccc(Cl)c(Cl)c1)c(=O)n2C (stereo not drawn) [Example 270, 4-((1-(3,4-dichlorobenzyl)-3,7-dimethyl-2,6-dioxo-2,3,6,7-tetrahydro-1H-purin-8-yl)(hydroxy)methyl)cyclohexanecarboxylic acid] | 1000 to 5000
27 | Cn1c(CCN2CCOCC2)nc2c1c(=O)n(Cc1ccc(Cl)c(Cl)c1)c(=O)n2C [Example 159, 1-(3,4-dichlorobenzyl)-3,7-dimethyl-8-(2-morpholinoethyl)-1H-purine-2,6(3H,7H)-dione] | 10 to 1000
28 | Cc1ccc2[nH]c(Cn3c(=O)c4c(nc(CCO)n4C)n(C)c3=O)cc2c1 [Example 210, 8-(2-hydroxyethyl)-3,7-dimethyl-1-((5-methyl-1H-indol-2-yl)methyl)-1H-purine-2,6(3H,7H)-dione] | 1000 to 5000
29 | Cc1ccc2[nH]c(Cn3c(=O)c4c(nc(N)n4C)n(C)c3=O)cc2c1 [Example 232, 8-amino-3,7-dimethyl-1-((5-methyl-1H-indol-2-yl)methyl)-1H-purine-2,6(3H,7H)-dione] | > 10000
30 | Cn1c(NC2CCCC(C(=O)O)C2)nc2c1c(=O)n(Cc1ccc3cc[nH]c3c1)c(=O)n2C (stereo not drawn) [Example 260, 3-(1-((1H-indol-6-yl)methyl)-3,7-dimethyl-2,6-dioxo-2,3,6,7-tetrahydro-1H-purin-8-ylamino)cyclohexanecarboxylic acid] | 10 to 1000
